Laboratory results: US20210046124A1, “HUMAN FUNCTIONAL CORNEAL ENDOTHELIAL CELL AND APPLICATION THEREOF” (KYOTO PREFECTURAL PUBLIC UNIVERSITY CORPORATION, priority 2016, published 2021)
Several values for one entry are separate records, joined by “and”; a condition that tells them apart may be missing. Identical values can stand only once. Entries after “also recorded” stand apart in the source; their conditions may differ. Counter-ions that a name gives are not always drawn.

Tests used:
Type in all cases: cell-based, human
cultured HCECs [1] = assay: Flow cytometry (FACS) of surface CD markers CD44, CD166, CD24, CD26, CD105 of cultured HCECs; E-ratio; settings: for effect on the E-ratio: presence of the agent during culture
Description: FIG. 68 is a diagram showing the method to estimate the content of effector (E-ratio) in a cultured cell population by FACS analysis. The gate is set as followings in measurements using PE-Cy7-labeled anti-human CD44 antibodies (BD Biosciences) and setting the Area Scaling Factor of Blue laser of FACS Canto II to 0.75 and voltage of PE-Cy7 to 495. First, fractions A, B, C, and D are set in the dot plot (top row left) where the X axis is CD24 and the Y axis is CD166. At this time, fraction A is CD24 negative and CD166 positive, fraction B is CD24 positive and CD166 positive, fraction C is CD24 negative and CD166 negative, and fraction D is CD24 positive and CD166 negative. The proportion of fraction B when target cells for analysis are 100% is considered the content of non-intended cell C [CD24 positive cell]. […] Further, a separate dot plot where the X axis is CD44 and the Y axis is CD26 is created and fractions a′, b′, c′, and d′ are set as in the diagram on the top row right side. The proportion of fraction B when the target cells of analysis is 100% is the non-intended cell B [CD26 positive cell] content.
Method of calculating the E-ratio: Typically, fluorescence intensities differ depending on the type of fluorescence of a label or equipment setting. In a measurement under the following condition: PE-Cy7-labeled anti-human CD44 antibody (BD Biosciences) is used and Area Scaling Factor of Blue laser of FACS Canto II is set to 0.75 and the voltage of PE-Cy 7 is set to 495, gates are set as follows: First, fractions A, B, C, and D are set in a dot plot (FIG. 68, top row left side) with X axis as CD24 and Y axis as CD166. At this time, fraction A is CD24 negative and CD166 positive, fraction B is CD24 positive and CD166 positive, fraction C is CD24 negative and CD166 negative, and fraction D is CD24 positive and CD166 negative. The proportion of fraction B, when target cells for analysis is 100%, is considered the content of non-intended cell C [CD24 positive cell]. […] Further, a separate dot plot where the X axis is CD44 and the Y axis is CD26 is created and fractions a′, b′, c′, and d′ are set as in the diagram on the top row right side of FIG. 68. The proportion of fraction B, when the target cell of analysis is 100%, is the non-intended cell B [CD26 positive cell] content (see FIG. 68).
HCECs were collected from the culture dish by TrypLE Select treatment as described above and suspended at a concentration of 4×10^6 cells/mL in FACS buffer (PBS containing 1% BSA and 0.05% NaN3). An equal volume of antibody solution was added and incubated for 2 hours at 4.degrees. C. The antibody solutions comprised the following: FITC-conjugated anti-human CD26 mAb, PE-conjugated anti-human CD166 mAb, PerCP-Cy5.5 conjugated anti-human CD24 mAb, PE-Cy7-conjugated anti-human CD44 (all from BD Biosciences), and APC-conjugated anti-human CD105 (eBioscience, San Diego, Calif., USA). After washing with FACS buffer, the HCECs were analyzed with FACS Canto II (BD Biosciences).

cHCECs = assay: Phase contrast microscopy: morphology, cell area distribution, cultured cell density
Description: Phase contrast microscope images were taken by an inverted microscope system (CKX41, Olympus, Tokyo, Japan). For the cell area distribution analysis, the cHCECs were washed with PBS (−) three times and the phase contrast images were acquired by a BZ X-700 Microscope system (Keyence, Osaka, Japan). The cell area distributions were quantified by BZ-H3C Hybrid cell count software (Keyence).
Phase contrast images ware taken by an inverted microscope system (CKX41, Olympus, Tokyo, Japan). For the cell area distribution analysis, the cHCECs were washed with PBS (−) three times and phase contrast images were acquired by a BZ X700 Microscope system (Keyence, Osaka, Japan). The area distributions were quantified by BZ-H3C Hybrid cell count software (Keyence).

HCECs = assay: Trichostatin A (TSA) treatment of HCECs; settings: medium supplemented with 0.5 .micro.M Trichostatin A
Procedure: HCECs with treated with Trichostatin A as follows. The Descemet's membranes with the corneal endothelial cells were stripped from donor corneas and digested at 37.degrees. C. with 1 mg/mL collagenase A (Roche Applied Science, Penzberg, Germany) for 2 hours. The HCECs obtained from a single donor cornea were seeded in one well of a Type I collagen-coated 6-well cell culture plate (Corning Inc., Corning, N.Y., USA). The Trichostatin A-containing medium was prepared with Opti-MEM-I (Life Technologies Corp., Carlsbad, Calif., USA), 8% fetal bovine serum (FBS), 5 ng/mL epidermal growth factor (EGF; Life Technologies), 20 .micro.g/mL ascorbic acid (Sigma-Aldrich Corp.), 200 mg/L calcium chloride (Sigma-Aldrich Corp., St. Louis, Mo., USA), 0.08% chondroitin sulfate (Wako Pure Chemical Industries, Ltd., Osaka, Japan), 50 .micro.g/mL of gentamicin, and 0.5 .micro.M of Trichostatin A. The HCECs were cultured using the Trichostatin A-containing medium at 37.degrees. C. in a humidified atmosphere containing 5% CO2. The culture medium was changed twice a week. The HCECs were subcultured at ratios of 1:3 using 10× TrypLE Select (Life Technologies) for 12 minutes at 37.degrees. C. when they reached confluence. The cells were cultured for 30 days. The HCECs from the second passage were used for observation with a fluorescence microscope.

cultured HCECs [2] = assay: Centrifugation cell attachment assay: coated Descemet's membrane components and cell suspension vehicles; settings: for minimum concentration necessary for the observed cell binding: coating concentration; for binding / distribution of cultured HCECs in coated wells: U-bottomed 96-well plates coated with the component, 200×g for 2 minutes, Opti-MEM
Procedure: Cell attachment to laminins, […], proteoglycans and glycoprotein was tested by the centrifugation cell attachment assay described previously (Friedlander et al., 1998. J. Cell Biol. 107: p 2329) with some modifications. Laminin-521, -511, -411, and -332 were purchased from Veritas (Tokyo, Japan). Perlecan, Agrin, Nidogen-1, TSP-1 and Fibulin 5 were purchased from R&D Systems (Minneapolis, Minn.). Type IV collagen was purchased from BD Biosciences (San Jose, Calif., USA).
Each well of a U-shaped 96-well Maxisorp plate (Nunc) was coated with 40 .micro.l of laminin, collagen, proteoglycan or glycoprotein solution overnight at 4 degrees Celsius. The wells were washed three times with PBS (−) and blocked with 1% BSA in 0.1 M NaHCO3 (pH 8.0) for 1 hour at room temperature. The cultured HCECs were suspended in Opti-MEM, Opeguard-MA (Senju Pharmaceutical, Osaka, Japan) or BSS-Plus (Alcon Laboratories, Fort Worth, Tex., USA) at a concentration of 1×10^5 cells/mL, and 0.1 mL of the cell suspension was added to each well and incubated for 10 minutes. The plate was then centrifuged at 200×g for 2 minutes. The bright-field Z stack images were captured by a BZ-9000 microscope (Keyence, Osaka, Japan) at 2× objective magnification and omnifocal images were created from these images using BZ-II Analyzer software. In accordance with the description by Friedlander et al (Friedlander et al., 1998. J. Cell Biol. 107: p 2329), the cells were centrifuged into a pellet at the bottom of the well on non-adhesive substrates. As the adhesiveness of the substrate increased, more cells bound to the substrates along the wall of the well. Bond to the substrate is detected in a circular area with a measurable diameter at the bottom or the well. On strongly adhesive substrates, cells were distributed more or less uniformly on the well (Grumet M, Flaccus A, and Margolis R U. J. Cell Biol. 1993; 120:815-824).
As a method for assessing the attachment ability of HCECs, this Example performed a centrifugation cell attachment assay [Friedlander et al., 1998. J. Cell Biol. 107: p 2329] with some modification (FIG. 36). The cultured HCECs were detached from culture dishes as described in (Materials and Methods) and cell suspension was prepared at a concentration of 1×10^5 cells/ml. 100 .micro.l of the cell suspension was added to each well of the U-bottomed 96-well plates coated with laminin-511, laminin-411, Type IV collagen or other components of Descemet's membrane listed in Table 6. The plate was incubated for 10 minutes at room temperature and then centrifuged at 200×g for 2 minutes. The attached cells were assessed under a BZ-9000 microscope system as described in (Materials and Methods).

[3] = addition of Y-27632 during the culture for 47 days

Compound: C[C@@H](N)[C@H]1CC[C@H](C(=O)Nc2ccncc2)CC1 [Lot Y-27632, (R)-(+)-trans-(4-pyridyl)-4-(1-aminoethyl)-cyclohexanecarboxamide dihydrochloride monohydrate]
- E-ratios (cultured HCECs [1]; Y-27632 added every three days throughout the entire culture period, TGF-beta signaling not inhibited, seeding density higher than 400 cells/mm^2): ≥ 90%
- improvement (E-ratio, increase in the proportion of intermediately differentiated corneal endothelial cells) (cultured HCECs [1]; about 1 .micro.M): very little improvement
- improvement (E-ratio, increase in the proportion of intermediately differentiated corneal endothelial cells) (cultured HCECs [1]; about 5 .micro.M): little
- improvement (E-ratio, increase in the proportion of intermediately differentiated corneal endothelial cells) (cultured HCECs [1]; about 10 .micro.M or more): More of an effect
- E-Ratio (cultured HCECs [1]; addition of Y-27632 throughout 35 days of culture, 6th passage): 52.3%
- effect on the E-ratio (cultured HCECs [1]): further improved the E-ratio
- average cell area (cHCECs; [3]): 216 .micro.m^2
- cultured cell density (cHCECs; [3]): 2582 cells/mm^2

Compound: CC(/C=C/C(=O)NO)=C\[C@@H](C)C(=O)c1ccc(N(C)C)cc1 [Trichostatin A]
- effect on the E-ratio (cultured HCECs [1]): improved the E-ratio
- differentiation into mature cHCECs (HCECs): can be promoted to differentiate into mature cHCECs

Compound: Perlecan: purchased from R&D Systems, Descemet's membrane component
- minimum concentration necessary for the observed cell binding (cultured HCECs [2]): 400 nM

Compound: laminin-521: laminin purchased from Veritas, coating protein
- binding / distribution of cultured HCECs in coated wells (cultured HCECs [2]): uniformly distributed; also recorded: concentration dependent manner

Compound: laminin-411: laminin purchased from Veritas, coating protein
- binding / distribution of cultured HCECs in coated wells (cultured HCECs [2]): formed a circular pellet
- minimum concentration necessary for the observed cell binding (cultured HCECs [2]): 1.25 nM and 2.85 .micro.g/mL

Compound: C[S+]([O-])c1ccc(-c2nc(-c3ccc(F)cc3)c(-c3ccncc3)[nH]2)cc1 (centres unmarked) [SB203580, 4-(4-fluorophenyl)-2-(4-methylsulfinylphenyl)-5-(4-pyridyl)-1H-imidazole]
- senescent form of cHCEC cultures (cHCECs; inhibitor added to the entire culture, cultures a5, a1, a2): did not have any senescent form at first glance

Compound: laminin-511: laminin purchased from Veritas, coating protein
- binding / distribution of cultured HCECs in coated wells (cultured HCECs [2]): uniformly distributed; also recorded: concentration dependent manner
- minimum concentration necessary for the observed cell binding (cultured HCECs [2]): 4 pM and 3 ng/mL

Compound: Agrin: purchased from R&D Systems, Descemet's membrane component
- minimum concentration necessary for the observed cell binding (cultured HCECs [2]): 400 nM

Compound: TSP-1: purchased from R&D Systems, Descemet's membrane component
- minimum concentration necessary for the observed cell binding (cultured HCECs [2]): 400 nM

Compound: laminin-332: laminin purchased from Veritas, coating protein
- binding / distribution of cultured HCECs in coated wells (cultured HCECs [2]): formed a circular pellet
